Source: patent US20150017667A1, “MEANS AND METHODS FOR ASSESSING LIVER DISORDERS” (BASF SE, priority 2012, published 2015)
Structures can show the parent of a compound that is named as a salt. Marks after values point to notes of the source that are not given here.

System: male rats
Test: 28-day repeated dose oral toxicity study (OECD 407) with GC-MS/LC-MS plasma metabolite profiling, male rats
Assay type: in vivo, rat
Conditions: plasma
Description: Drinking water was also offered ad libitum.
The samples were centrifuged for generation of plasma.

CN(CCOc1ccc(CC2SC(=O)NC2=O)cc1)c1ccccn1 (stereo not drawn) [Rosiglitazone maleate]
Alanine, ratio versus control (day 7): 0.78* | Citrulline, ratio versus control (day 7): 0.88* | Isoleucine, ratio versus control (day 7): 0.7* | Leucine, ratio versus control (day 7): 0.74* | Lysine, ratio versus control (day 7): 0.78* | Ornithine, ratio versus control (day 7): 0.85* | Phenylalanine, ratio versus control (day 7): 0.85* | Phosphate (inorganic and organic phosphates), ratio versus control (day 7): 0.76* | Phosphatidylcholine (C16:0,C16:0), ratio versus control (day 7): 1.14* | Proline, ratio versus control (day 7): 0.89* | Valine, ratio versus control (day 7): 0.74* | Phosphatidylcholine (C16:0,C20:5), ratio versus control (day 7 (Table 4a)): 1.07* | Docosahexaenoic acid (C22:cis[4,7,10,13,16,19]6), ratio versus control (day 7 (Table 4b)): 0.57* | Phosphatidylcholine (C18:0,C22:6), ratio versus control (day 7 (Table 4b)): 0.87* | Threonine, ratio versus control (day 7 (Table 4b)): 0.74* | Alanine, ratio versus control (day 14): 0.83* | Citrulline, ratio versus control (day 14): 0.79 | Isoleucine, ratio versus control (day 14): 0.72* | Leucine, ratio versus control (day 14): 0.66* | Lysine, ratio versus control (day 14): 0.77* | Ornithine, ratio versus control (day 14): 0.86* | Phenylalanine, ratio versus control (day 14): 0.84* | Phosphate (inorganic and organic phosphates), ratio versus control (day 14): 0.66* | Phosphatidylcholine (C16:0,C16:0), ratio versus control (day 14): 1.22* | Proline, ratio versus control (day 14): 0.88* | Valine, ratio versus control (day 14): 0.74* | Phosphatidylcholine (C16:0,C20:5), ratio versus control (day 14 (Table 4a)): 1.11* | Docosahexaenoic acid (C22:cis[4,7,10,13,16,19]6), ratio versus control (day 14 (Table 4b)): 0.66* | Phosphatidylcholine (C18:0,C22:6), ratio versus control (day 14 (Table 4b)): 0.9* | Threonine, ratio versus control (day 14 (Table 4b)): 0.74* | Alanine, ratio versus control (day 28): 0.88* | Citrulline, ratio versus control (day 28): 0.86* | Isoleucine, ratio versus control (day 28): 0.78* | Leucine, ratio versus control (day 28): 0.78* | Lysine, ratio versus control (day 28): 0.86* | Ornithine, ratio versus control (day 28): 0.78* | Phenylalanine, ratio versus control (day 28): 0.81* | Phosphate (inorganic and organic phosphates), ratio versus control (day 28): 0.69* | Phosphatidylcholine (C16:0,C16:0), ratio versus control (day 28): 1.07 | Proline, ratio versus control (day 28): 0.93* | Valine, ratio versus control (day 28): 0.84* | Phosphatidylcholine (C16:0,C20:5), ratio versus control (day 28 (Table 4a)): 1.06 | Docosahexaenoic acid (C22:cis[4,7,10,13,16,19]6), ratio versus control (day 28 (Table 4b)): 0.83* | Phosphatidylcholine (C18:0,C22:6), ratio versus control (day 28 (Table 4b)): 0.84* | Threonine, ratio versus control (day 28 (Table 4b)): 0.87*
